Experimental data reported in patent US5164367A, “Method of using copper(II) containing compounds to accelerate wound healing” (ProCyte Corporation, priority 1990, dated 1992).

Assays:
[1] = tested on: wound chambers in normal rats (granulation tissue formation); assay: Subcutaneous stainless steel wound chamber model, I.M. injection, normal rats; type: in vivo
Text: The subcutaneous implantation of stainless steel wound chambers in rats provides a model for the healing of open cavity wounds. This model in many ways mimics the early events in the formation of granulation tissue found in many types of wounds and surgical defects. Implantation of these chambers triggers a series of responses which reflect the series of phases involved in wound healing--fibrin clot formation, infiltration of white cells, collagen synthesis, and new blood vessel formation.
(§1) The chambers were removed at day 15 and 29.
After allowing for encapsulation of the chambers, the rats were injected I.M. with 0.1 ml of either a saline solution containing 10 mg/ml glycyl-L-histidyl-L-lysine:copper(II) (2:1 molar ratio) or saline.

[2] = tested on: 2.0x2.0 cm full thickness skin defects in pigs; assay: Full thickness skin defects in pigs, I.M. injection, punch biopsy analysis; type: in vivo, domestic pigs; settings: pig
Experimental: The systemic application of GHL-Cu increases the formation of granulation tissue in pigs. Two domestic pigs approximately 29-31 pounds, about 8 weeks old, were anesthetized with Ketamine (30 mg/Kg) and Rompum (5 mg/Kg). A series of full thickness skin defects measuring 2.0×2.0 cm were created on the backs of each pig and bandaged with gauze and adhesive tape. One pig was treated with I.M. injections of strerile saline and the other with a solution of GHL-Cu (30 mg/ml). Each pig received 1.0 ml injections of either the saline or GHL-Cu solution on days 0, 1, 2, 5, 6, 7, 8, 9, 12, and 13.
Punch biopsy samples were taken from the centers of the healing wounds on day 7 and day 12 and analyzed for the biochemical parameters of granulation tissue and described in Example 10.

[3] = tested on: 15 mm full-thickness excision wound in mice; assay: Full thickness defect model in mice, I.M. injection; type: in vivo
Text: Following an acclimation period, mice are anesthetized with I.P. pentobarbital and prepped for surgery. The hair is plucked from a wide area of the mid-back. An ink stamp bearing a 15 mm diameter circle is used to mark the skin for subsequent full-thickness excision. Tissue is excised to the fascia underlying the paniculus carnosus muscle. Following excision, hemostasis is achieved through irrigation and the use of sterile gauze pads.
Mice received a first I.M. treatment of GHL-Cu following hemostasis, Day 0. Injections consisted of 0.1 mg of GHL-Cu in a volume of 0.1 ml. Mice used as controls received injections of saline. Injections were repeated on days 1, 2, 3, 6, 7, 8, 9, 10, and 13.
The residual wound surface area is measured on days 1, 7, 10 and 14. The final comparison is performed on Day 14. Table 5 below illustrates that I.M. injection of GHL-Cu resulted is an approximately 75% smaller residual wound size at 14 days.

[4] = tested on: wound chambers in healing impaired rats (granulation tissue formation); assay: Wound chamber model in cortisone acetate treated (healing impaired) rats, I.M. injection; type: in vivo
Experimental: as §1
(§2) After implantation of the chambers, the rats were subsequently injected with Cortisone Acetate (10 mg I.M. daily, Cortone Acetate, Merck) to impair the healing response. After allowing for encapsulation of the chambers, the rats were injected I.M. (in the opposite leg from the cortisone injection) with 0.1 ml of either a saline solution containing 10 mg/ml of glycyl-L-histidyl-L-lysine:copper(II) (2:1 molar ratio) or saline.
as §2, with “containing 19” for “containing 10”, “of glycyl-L-histidyl-L-lysyl-valyl-phenylalanly-valine:copper(II)” for “of glycyl-L-histidyl-L-lysine:copper(II) (2:1 molar ratio)”
as §2, with “the copper(II) compounds listed at the dosage specified in Table 4,” for “either a saline solution containing 10 mg/ml of glycyl-L-histidyl-L-lysine:copper(II) (2:1 molar ratio)”

[5] = tested on: wound chambers in rats (granulation tissue formation); assay: Wound chamber model in rats, compounds injected directly into the wound chambers;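 further: compounds given as 0.2 ml injections into encapsulated wound chambers in rats on set days, chambers removed at day 15 or 29, contents measured per chamber versus saline-injected chambers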
[6] = cortisone treated rats, 0.1 ml of 10 mg/ml
[7] = healing impaired (cortisone) rats, 0.3 mg/injection, saline control 502 ± 145
[8] = Table 8 part A, 2.0 mg/injection, saline control 4.5 ± 1.0
[9] = Table 8 part A, 2.0 mg/injection, saline control 49 ± 9
[10] = Table 8 part A, 2.0 mg/injection, saline control 75 ± 11
[11] = Table 8 part A, 2.0 mg/injection, saline control 703 ± 244

Question: What does the source list for “glycyl-L-histidyl-L-lysine:copper(II) [GHL:Cu]”?
Answer: ANGIOGENESIS ([1]; 1.0 mg/injection, saline control 2.2 ± 1.1): 3.0 ± 1.5 Units AP/chamber; PROTEIN ([1]; 1.0 mg/injection, saline control 36 ± 13): 55 ± 19 mg/chamber; DRY WEIGHT ([1]; 1.0 mg/injection, saline control 51 ± 15): 75 ± 25 mg; COLLAGEN ([1]; 1.0 mg/injection, saline control 376 ± 86): 1273 ± 711 μg HP/chamber; biochemical healing parameters (vs saline) ([1]; 0.1 ml of 10 mg/ml): significantly increased; WET WEIGHT ([2]; 30 mg/injection, punch biopsies (day 7 and day 12), saline control 121 ± 7): 148 ± 11 mg; ANGIOGENESIS ([2]; 30 mg/injection, punch biopsies, saline control 0.4 ± 0.1): 2.2 ± 1.2 Units AP/chamber; COLLAGEN ([2]; 30 mg/injection, punch biopsies, saline control 628 ± 182): 855 ± 20 μg HP/chamber; visual examination of granulation tissue level ([2]; 30 mg/injection, saline treated animal: level below the skin): raised above the level of the surrounding skin; weight, collagen content, and angiogenesis in the biopsies ([2]; 1.0 ml of 30 mg/ml per injection): significant increase; RESIDUAL WOUND SURFACE AREA DAY 14 ([3]; 0.1 mg in 0.1 ml per injection, saline control 1.78 ± 2.56): 0.42 ± 0.60 SQ MM; smaller residual wound size at 14 days vs saline ([3]; 0.1 mg per injection, day 14): approximately 75%; healing response in healing impaired animals relative to normal animals [4, 6]: increased the healing response in the healing impaired animals to the level found in the normal animals; level of all the biochemical parameters examined compared to control animals [4, 6]: increased; ANGIOGENESIS ([4]; healing impaired (cortisone) rats, 1.0 mg/injection, saline control 0.5 ± 0.3): 1.5 ± 1.6 Units AP/chamber; PROTEIN ([4]; healing impaired (cortisone) rats, 1.0 mg/injection, saline control 11 ± 8): 25 ± 9 mg/chamber; DRY WEIGHT ([4]; healing impaired (cortisone) rats, 1.0 mg/injection, saline control 20 ± 12): 35 ± 13 mg; COLLAGEN ([4]; healing impaired (cortisone) rats, 1.0 mg/injection, saline control 187 ± 101): 366 ± 74 μg HP/chamber

Question: Which COLLAGEN [4, 7] does the source give for “glycylglycyl-glycine:copper(II) [GGG:Cu]” here?
Answer: Its COLLAGEN is 829 ± 210 μg HP/chamber.

Question: carnosine:copper(II) [CARN:Cu] was tested. Which COLLAGEN [4, 7] did it give?
Answer: Its COLLAGEN is 832 ± 174 μg HP/chamber.

Question: Which ANGIOGENESIS ([4]; cortisone treated rats, 1.9 mg/injection, saline control 1.9 ± 0.4) does the source give for “glycyl-L-histidyl-L-lysyl-L-valyl-L-phenylalanyl-L-valine:copper(II) [GHLVFV:Cu]” here?
Answer: The ANGIOGENESIS was 6.9 ± 6.1 Units AP/chamber.

Question: And the PROTEIN ([4]; cortisone treated rats, 1.9 mg/injection, saline control 32 ± 4)?
Answer: The PROTEIN was 45 ± 15 mg/chamber.

Question: What about the “DRY WEIGHT” value ([4]; cortisone treated rats, 1.9 mg/injection, saline control 65 ± 8) of the same compound?
Answer: The value was 84 ± 28 mg.

Question: What about the COLLAGEN ([4]; cortisone treated rats, 1.9 mg/injection, saline control 502 ± 145) of the same compound?
Answer: Its COLLAGEN is 1279 ± 1001 μg HP/chamber.

Question: And the “level of all the biochemical parameters examined” value ([4]; cortisone treated rats, 0.1 ml of 19 mg/ml)?
Answer: Its value is “increased”.

Question: What does the source list for “glycylL-histidyl-L-lysine octyl ester:copper(II) [GHL-Octyl Ester:Cu]”?
Answer: ANGIOGENESIS ([5]; Table 7 part B, 2.6 mg/injection, saline control 4.5 ± 1.0): 12.4 ± 3.6 Units AP/chamber; PROTEIN ([5]; Table 7 part B, 2.6 mg/injection, saline control 49 ± 9): 66 ± 8 mg/chamber; WET WEIGHT ([5]; Table 7 part B, 2.6 mg/injection, saline control 75 ± 11): 106 ± 8 mg; COLLAGEN ([5]; Table 7 part B, 2.6 mg/injection, saline control 703 ± 244): 1918 ± 565 μg HP/chamber

Question: What does the source list for “lysylL-histidyl-glycyl-L-valyl-L-phenylalanyl-L-valine:copper(II) [LHGVFV:Cu]”?
Answer: ANGIOGENESIS ([5]; Table 8 part B, 3.8 mg/injection, saline control 5.3 ± 3.6): 8.0 ± 1.3 Units AP/chamber; PROTEIN ([5]; Table 8 part B, 3.8 mg/injection, saline control 47 ± 20): 37 ± 9 mg/chamber; WET WEIGHT ([5]; Table 8 part B, 3.8 mg/injection, saline control 85 ± 30): 95 ± 18 mg; COLLAGEN ([5]; Table 8 part B, 3.8 mg/injection, saline control 335 ± 132): 1630 ± 275 μg HP/chamber

Question: With “histidylglycyl-L-lysine:copper(II) [HGL:Cu]” as the compound, how does the ANGIOGENESIS [5, 8] read?
Answer: Its ANGIOGENESIS is 10.4 ± 3.9 Units AP/chamber.

Question: What about the PROTEIN [5, 9] of the same compound?
Answer: Its PROTEIN is 58 ± 9 mg/chamber.

Question: And the “WET WEIGHT” value [5, 10]?
Answer: Its value is 104 ± 13 mg.

Question: And the COLLAGEN [5, 11]?
Answer: Its COLLAGEN is 2025 ± 456 μg HP/chamber.

Question: Which ANGIOGENESIS ([5]; Table 7 part A, 2.6 mg/injection, saline control 5.3 ± 3.6) does the source give for “glycylL-histidyl-L-lysine octyl amide:copper(II) [GHL-Octyl Amide:Cu]” here?
Answer: Its ANGIOGENESIS is 6.7 ± 1.3 Units AP/chamber.

Question: What about the PROTEIN ([5]; Table 7 part A, 2.6 mg/injection, saline control 47 ± 20) of the same compound?
Answer: The PROTEIN was 47 ± 6 mg/chamber.

Question: What about the “WET WEIGHT” value ([5]; Table 7 part A, 2.6 mg/injection, saline control 85 ± 30) of the same compound?
Answer: The value was 101 ± 8 mg.

Question: And the COLLAGEN ([5]; Table 7 part A, 2.6 mg/injection, saline control 335 ± 132)?
Answer: The COLLAGEN was 1339 ± 265 μg HP/chamber.

Question: What does the source list for “glycylL-histidyl-caprolactam:copper(II) [GHCap:Cu]”?
Answer: ANGIOGENESIS [5, 8]: 10.7 ± 3.1 Units AP/chamber; PROTEIN [5, 9]: 60 ± 11 mg/chamber; WET WEIGHT [5, 10]: 98 ± 13 mg; COLLAGEN [5, 11]: 1699 ± 365 μg HP/chamber

Question: Which results are given for “glycylL-(3-methyl)histidyl-L-lysine:copper(II) [G(3-Me)HL:Cu]”?
Answer: ANGIOGENESIS [5, 8]: 8.9 ± 5.5 Units AP/chamber; PROTEIN [5, 9]: 75 ± 9 mg/chamber; WET WEIGHT [5, 10]: 125 ± 15 mg; COLLAGEN [5, 11]: 1996 ± 288 μg HP/chamber

Question: For citrate:copper(II) [CITRATE:Cu], which COLLAGEN ([4]; healing impaired (cortisone) rats, 0.5 mg/injection, saline control 502 ± 145) is on record?
Answer: Its COLLAGEN is 976 ± 343 μg HP/chamber.

Question: How did the ANGIOGENESIS ([5]; Table 7 part A, 3.1 mg/injection, saline control 5.3 ± 3.6) turn out when “glycylL-histidyl-L-lysyl-L-tryptophan:copper(II) [GHLW:Cu]” was run?
Answer: Its ANGIOGENESIS is 7.7 ± 1.6 Units AP/chamber.

Question: What about the “WET WEIGHT” value ([5]; Table 7 part A, 3.1 mg/injection, saline control 85 ± 30) of the same compound?
Answer: Its value is 94 ± 14 mg.

Question: And the COLLAGEN ([5]; Table 7 part A, 3.1 mg/injection, saline control 335 ± 132)?
Answer: The COLLAGEN was 1508 ± 128 μg HP/chamber.

Question: Which COLLAGEN ([4]; healing impaired (cortisone) rats, 0.2 mg/injection, saline control 502 ± 145) does the source give for `O=S(=O)([O-])[O-].[Cu+2]` [CuSO4, cupric sulfate] here?
Answer: Its COLLAGEN is 976 ± 343 μg HP/chamber.

Question: With “alanylL-histidyl-L-lysine:copper(II) [AHL:Cu]” as the compound, how does the ANGIOGENESIS [5, 8] read?
Answer: Its ANGIOGENESIS is 10.2 ± 6.5 Units AP/chamber.

Question: What about the PROTEIN [5, 9] of the same compound?
Answer: Its PROTEIN is 46 ± 14 mg/chamber.

Question: And the “WET WEIGHT” value [5, 10]?
Answer: The value was 74 ± 22 mg.

Question: What about the COLLAGEN [5, 11] of the same compound?
Answer: Its COLLAGEN is 1565 ± 520 μg HP/chamber.
